Assay results as given in patent US11780893B2, “Kv1.3 blockers” (Zealand Pharma A/S, priority 2019, dated 2023).
Bridge positions count the residues as written; N and C are the ends. Square brackets hold non-standard residues; d marks the D form. Peptide text beside a SMILES is read from it. Nle = CCCC[C@H](N)C(=O)O

What follows are compounds tested against T1, human Kv1.3 voltage-gated K+ channel (Homo sapiens, UniProt P22001) (assay: cell-based). Conditions: inhibition of thallium flux, CHO-DUKX cells with human Kv1.3; read-out: IC50.
T1 construct: host or cells: CHO-DUKX
T1 sequence (P22001 whole entry): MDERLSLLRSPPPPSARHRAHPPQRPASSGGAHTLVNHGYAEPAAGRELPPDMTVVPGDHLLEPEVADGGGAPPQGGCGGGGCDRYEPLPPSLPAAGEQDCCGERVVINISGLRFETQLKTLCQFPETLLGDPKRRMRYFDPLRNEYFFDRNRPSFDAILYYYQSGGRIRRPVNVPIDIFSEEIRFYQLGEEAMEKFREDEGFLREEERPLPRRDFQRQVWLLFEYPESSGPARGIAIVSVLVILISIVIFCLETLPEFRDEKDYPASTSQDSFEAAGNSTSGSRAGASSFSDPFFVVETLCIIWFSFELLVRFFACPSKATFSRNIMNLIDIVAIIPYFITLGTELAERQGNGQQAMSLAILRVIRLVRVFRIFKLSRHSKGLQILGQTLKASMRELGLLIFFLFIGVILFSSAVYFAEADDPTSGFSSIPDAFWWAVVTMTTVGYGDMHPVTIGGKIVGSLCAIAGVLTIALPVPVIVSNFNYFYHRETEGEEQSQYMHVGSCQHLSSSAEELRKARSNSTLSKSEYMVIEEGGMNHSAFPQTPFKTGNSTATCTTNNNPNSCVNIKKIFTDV

**Q.** For CCCC[C@H](NC(=O)[C@H](CC(=O)O)NC(=O)[C@H](CCCC)NC(=O)[C@@H](N)CO)C(=O)N[C@@H](CCCNC(=N)N)C(=O)N[C@H]1CSSC[C@@H]2NC(=O)[C@H](CCCCN)NC(=O)CNC(=O)[C@H](Cc3ccccc3)NC(=O)[C@H]([C@@H](C)CC)NC(=O)[C@H](CO)NC(=O)CNC(=O)[C@H]([C@@H](C)CC)NC(=O)[C@H](C)NC(=O)[C@H](CCCCN)NC(=O)[C@H](CC(C)C)NC(=O)[C@@H]3CSSC[C@@H](C(=O)N[C@@H](Cc4ccc(O)cc4)C(=O)N4CCC[C@H]4C(=O)N[C@@H](CCCNC(=N)N)C(N)=O)NC(=O)[C@H](CCCCN)NC(=O)[C@H](CSSC[C@H](NC(=O)[C@H](CCC(=O)O)NC(=O)[C@H](C(C)C)NC(=O)[C@H](C(C)C)NC(=O)[C@H](C)NC(=O)[C@H](CO)NC1=O)C(=O)N[C@@H](CCCCN)C(=O)N[C@@H](CCC(N)=O)C(=O)N[C@@H](CCCCN)C(=O)N3)NC(=O)[C@H](CCCCN)NC(=O)[C@H](CCCCN)NC(=O)[C@H](CC(N)=O)NC(=O)[C@H](CCSC)NC2=O [Compound 90] (H-S[Nle]D[Nle]RCSAVVECKQKCLKAIGSIFGKCMNKKCKCYPR-NH2; disulfide 6-27, 12-32, 16-34), which IC50 is on record?
**A.** Its IC50 is 0.19 nM.

**Q.** CCCC[C@@H]1NC(=O)[C@@H]2CSSC[C@H](NC(C)=O)C(=O)N[C@@H](CO)C(=O)N[C@@H](C)C(=O)N[C@@H](CO)C(=O)N[C@@H](C(C)C)C(=O)N[C@@H](CCC(=O)O)C(=O)N[C@H]3CSSC[C@H](NC(=O)[C@H](CCCCN)NC(=O)[C@H](CCCCN)NC(=O)[C@H](CC(N)=O)NC1=O)C(=O)N[C@@H](CCCCN)C(=O)N[C@H](C(=O)N[C@@H](Cc1ccc(O)cc1)C(=O)N1CCC[C@H]1C(=O)N[C@@H](CO)C(N)=O)CSSC[C@H](NC(=O)[C@H](CCCCN)NC(=O)[C@H](CCC(N)=O)NC(=O)[C@H](CCCCN)NC3=O)C(=O)N[C@@H](CC(C)C)C(=O)N[C@@H](CCCCN)C(=O)N[C@@H](C)C(=O)N[C@@H]([C@@H](C)CC)C(=O)NCC(=O)N[C@@H](CO)C(=O)N[C@@H]([C@@H](C)CC)C(=O)N[C@@H](Cc1ccccc1)C(=O)NCC(=O)N[C@@H](CCCCN)C(=O)N2 [Compound 109] (Ac-CSASVECKQKCLKAIGSIFGKC[Nle]NKKCKCYPS-NH2; disulfide 1-22, 7-27, 11-29) was tested. Which IC50 did it give?
**A.** Its IC50 is 0.96 nM.

**Q.** Which IC50 does the source give for CCCC[C@@H]1NC(=O)[C@@H]2CSSC[C@H](NC(C)=O)C(=O)N[C@@H](CO)C(=O)N[C@@H](C)C(=O)N[C@@H](CO)C(=O)N[C@@H](C(C)C)C(=O)N[C@@H](CCC(=O)O)C(=O)N[C@H]3CSSC[C@H](NC(=O)[C@H](CCCCN)NC(=O)[C@H](CCCCN)NC(=O)[C@H](CC(N)=O)NC1=O)C(=O)N[C@@H](CCCCN)C(=O)N[C@H](C(=O)N[C@@H](Cc1ccc(O)cc1)C(=O)N[C@@H](CO)C(N)=O)CSSC[C@H](NC(=O)[C@H](CCCCN)NC(=O)[C@H](CCC(N)=O)NC(=O)[C@H](CCCCN)NC3=O)C(=O)N[C@@H](CC(C)C)C(=O)N[C@@H](CCCCN)C(=O)N[C@@H](C)C(=O)N[C@@H]([C@@H](C)CC)C(=O)NCC(=O)N[C@@H](CO)C(=O)N[C@@H]([C@@H](C)CC)C(=O)N[C@@H](Cc1ccccc1)C(=O)NCC(=O)N[C@@H](CCCCN)C(=O)N2 [Compound 110] (Ac-CSASVECKQKCLKAIGSIFGKC[Nle]NKKCKCYS-NH2; disulfide 1-22, 7-27, 11-29) here?
**A.** The IC50 was 2.3 nM.

**Q.** Which IC50 does the source give for CCCC[C@@H]1NC(=O)[C@@H]2CSSC[C@H](NC(C)=O)C(=O)N[C@@H](CO)C(=O)N[C@@H](C)C(=O)N[C@@H](CO)C(=O)N[C@@H](C(C)C)C(=O)N[C@@H](CCC(=O)O)C(=O)N[C@H]3CSSC[C@H](NC(=O)[C@H](CCCCN)NC(=O)[C@H](CCCCN)NC(=O)[C@H](CC(N)=O)NC1=O)C(=O)N[C@@H](CCCCN)C(=O)N[C@H](C(=O)N[C@@H](Cc1ccc(O)cc1)C(=O)NCC(N)=O)CSSC[C@H](NC(=O)[C@H](CCCCN)NC(=O)[C@H](CCC(N)=O)NC(=O)[C@H](CCCCN)NC3=O)C(=O)N[C@@H](CC(C)C)C(=O)N[C@@H](CCCCN)C(=O)N[C@@H](C)C(=O)N[C@@H]([C@@H](C)CC)C(=O)NCC(=O)N[C@@H](CO)C(=O)N[C@@H]([C@@H](C)CC)C(=O)N[C@@H](Cc1ccccc1)C(=O)NCC(=O)N[C@@H](CCCCN)C(=O)N2 [Compound 111] (Ac-CSASVECKQKCLKAIGSIFGKC[Nle]NKKCKCYG-NH2; disulfide 1-22, 7-27, 11-29) here?
**A.** The IC50 was 2.1 nM.

**Q.** For CCCC[C@@H]1NC(=O)[C@@H]2CSSC[C@H](NC(C)=O)C(=O)N[C@@H](CO)C(=O)N[C@@H](C)C(=O)N[C@@H](CO)C(=O)N[C@@H](C(C)C)C(=O)N[C@@H](CCC(=O)O)C(=O)N[C@H]3CSSC[C@H](NC(=O)[C@H](CCCCN)NC(=O)[C@H](CCCCN)NC(=O)[C@H](CC(N)=O)NC1=O)C(=O)N[C@@H](CCCCN)C(=O)N[C@H](C(=O)N[C@@H](Cc1ccc(O)cc1)C(N)=O)CSSC[C@H](NC(=O)[C@H](CCCCN)NC(=O)[C@H](CCC(N)=O)NC(=O)[C@H](CCCCN)NC3=O)C(=O)N[C@@H](CC(C)C)C(=O)N[C@@H](CCCCN)C(=O)N[C@@H](C)C(=O)N[C@@H]([C@@H](C)CC)C(=O)NCC(=O)N[C@@H](CO)C(=O)N[C@@H]([C@@H](C)CC)C(=O)N[C@@H](Cc1ccccc1)C(=O)NCC(=O)N[C@@H](CCCCN)C(=O)N2 [Compound 112] (Ac-CSASVECKQKCLKAIGSIFGKC[Nle]NKKCKCY-NH2; disulfide 1-22, 7-27, 11-29), which IC50 is on record?
**A.** The IC50 was 1.7 nM.

**Q.** For CCCC[C@@H]1NC(=O)[C@@H]2CSSC[C@H](NC(=O)[C@H](CCCNC(=N)N)NC(C)=O)C(=O)N[C@@H](CO)C(=O)N[C@@H](C)C(=O)N[C@@H](CO)C(=O)N[C@@H](C(C)C)C(=O)N[C@@H](CCC(=O)O)C(=O)N[C@H]3CSSC[C@H](NC(=O)[C@H](CCCCN)NC(=O)[C@H](CCCCN)NC(=O)[C@H](CC(N)=O)NC1=O)C(=O)N[C@@H](CCCCN)C(=O)N[C@H](C(=O)N[C@@H](Cc1ccc(O)cc1)C(=O)N1CCC[C@H]1C(=O)N[C@@H](CCCNC(=N)N)C(=O)O)CSSC[C@H](NC(=O)[C@H](CCCCN)NC(=O)[C@H](CCC(N)=O)NC(=O)[C@H](CCCCN)NC3=O)C(=O)N[C@@H](CC(C)C)C(=O)N[C@@H](CCCCN)C(=O)N[C@@H](C)C(=O)N[C@@H]([C@@H](C)CC)C(=O)NCC(=O)N[C@@H](CO)C(=O)N[C@@H]([C@@H](C)CC)C(=O)N[C@@H](Cc1ccccc1)C(=O)NCC(=O)N[C@@H](CCCCN)C(=O)N2 [Compound 113] (Ac-RCSASVECKQKCLKAIGSIFGKC[Nle]NKKCKCYPR-OH; disulfide 2-23, 8-28, 12-30), which IC50 is on record?
**A.** The IC50 was 0.34 nM.

**Q.** Which IC50 does the source give for CCCC[C@H](NC(=O)[C@@H]1CCCN1)C(=O)N[C@@H](CCC(=O)O)C(=O)N[C@@H](CCCC)C(=O)N[C@@H](CCCNC(=N)N)C(=O)N[C@H]1CSSC[C@@H]2NC(=O)[C@H](CCCCN)NC(=O)CNC(=O)[C@H](Cc3ccccc3)NC(=O)[C@H]([C@@H](C)CC)NC(=O)[C@H](CO)NC(=O)CNC(=O)[C@H]([C@@H](C)CC)NC(=O)[C@H](C)NC(=O)[C@H](C)NC(=O)[C@H](CC(C)C)NC(=O)[C@@H]3CSSC[C@@H](C(=O)N[C@@H](Cc4ccc(O)cc4)C(=O)N4CCC[C@H]4C(=O)N[C@@H](CCCNC(=N)N)C(=O)O)NC(=O)[C@H](CCCCN)NC(=O)[C@H](CSSC[C@H](NC(=O)[C@H](CCC(=O)O)NC(=O)[C@H](C(C)C)NC(=O)[C@H](CO)NC(=O)[C@H](C)NC(=O)[C@H](CO)NC1=O)C(=O)N[C@@H](CCCCN)C(=O)N[C@@H](CCC(=O)O)C(=O)N[C@@H](CCCCN)C(=O)N3)NC(=O)[C@H](CCCCN)NC(=O)[C@H](CCCCN)NC(=O)[C@H](CC(N)=O)NC(=O)[C@H](CCCC)NC2=O [Compound 118] (H-P[Nle]E[Nle]RCSASVECKEKCLAAIGSIFGKC[Nle]NKKCKCYPR-OH; disulfide 6-27, 12-32, 16-34) here?
**A.** Its IC50 is 1.39 nM.

**Q.** Which IC50 does the source give for CCCC[C@@H]1NC(=O)[C@@H]2CSSC[C@H](NC(=O)[C@H](CCCNC(=N)N)NC(=O)[C@H](CCCC)NC(=O)[C@H](CCC(=O)O)NC(=O)[C@H](CCCC)NC(=O)[C@H]3CCCN3)C(=O)N[C@@H](CO)C(=O)N[C@@H](C)C(=O)N[C@@H](CO)C(=O)N[C@@H](C(C)C)C(=O)N[C@@H](CCC(=O)O)C(=O)N[C@H]3CSSC[C@H](NC(=O)[C@H](CCCCN)NC(=O)[C@H](CCCCN)NC(=O)[C@H](CC(N)=O)NC1=O)C(=O)N[C@@H](CCCCN)C(=O)N[C@H](C(=O)N[C@@H](Cc1ccc(O)cc1)C(=O)N1CCC[C@H]1C(=O)N[C@@H](CCCNC(=N)N)C(=O)O)CSSC[C@H](NC(=O)[C@H](CCCCN)NC(=O)[C@H](CCC(N)=O)NC(=O)[C@H](CCCCN)NC3=O)C(=O)N[C@@H](CC(C)C)C(=O)N[C@@H](C)C(=O)N[C@@H](C)C(=O)N[C@@H]([C@@H](C)CC)C(=O)NCC(=O)N[C@@H](CO)C(=O)N[C@@H]([C@@H](C)CC)C(=O)N[C@@H](Cc1ccccc1)C(=O)NCC(=O)N[C@@H](CCCCN)C(=O)N2 [Compound 119] (H-[dP][Nle]E[Nle]RCSASVECKQKCLAAIGSIFGKC[Nle]NKKCKCYPR-OH; disulfide 6-27, 12-32, 16-34) here?
**A.** The IC50 was 0.63 nM.

**Q.** With CCCC[C@H](NC(=O)[C@@H]1CCCN1)C(=O)N[C@@H](CCC(=O)O)C(=O)N[C@@H](CCCC)C(=O)N[C@@H](CCCNC(=N)N)C(=O)N[C@H]1CSSC[C@@H]2NC(=O)[C@H](CCCCN)NC(=O)CNC(=O)[C@H](Cc3ccccc3)NC(=O)[C@H]([C@@H](C)CC)NC(=O)[C@H](CO)NC(=O)CNC(=O)[C@H]([C@@H](C)CC)NC(=O)[C@H](C)NC(=O)[C@H](C)NC(=O)[C@H](CC(C)C)NC(=O)[C@@H]3CSSC[C@@H](C(=O)N[C@@H](Cc4ccc(O)cc4)C(=O)N[C@@H](CCCNC(=N)N)C(=O)O)NC(=O)[C@H](CCCCN)NC(=O)[C@H](CSSC[C@H](NC(=O)[C@H](CCC(=O)O)NC(=O)[C@H](C(C)C)NC(=O)[C@H](CO)NC(=O)[C@H](C)NC(=O)[C@H](CO)NC1=O)C(=O)N[C@@H](CCCCN)C(=O)N[C@@H](CCC(N)=O)C(=O)N[C@@H](CCCCN)C(=O)N3)NC(=O)[C@H](CCCCN)NC(=O)[C@H](CCCCN)NC(=O)[C@H](CC(N)=O)NC(=O)[C@H](CCCC)NC2=O [Compound 120] (H-P[Nle]E[Nle]RCSASVECKQKCLAAIGSIFGKC[Nle]NKKCKCYR-OH; disulfide 6-27, 12-32, 16-34) as the compound, how does the IC50 read?
**A.** The IC50 was 0.894 nM.
